Among the data in US8178530B2, “Imidazolopyrazine compounds useful for the treatment of degenerative and inflammatory diseases” (Janssen Pharmaceutica NV, priority 2006, dated 2012) are EC50 values, retold here.

The assay has as its system MMP1 expression by SFs. Description: 'MMP assay': MMP1 expression by 'complex trigger' activated synovial fibroblasts (MMP1 ELISA). In kind it is cell-based, human. Particulars: Homo sapiens, Fibroblast, RASFs, 48 hrs.
`CCN(CC)CCNS(=O)(=O)c1ccc(Nc2ncc(-c3cn[nH]c3)n3ccnc23)cc1` [Compound 69, N-(2-Diethylaminoethyl)-4-[5-(1H-pyrazol-4-yl)imidazo[1,2-a]pyrazin-8-ylamino]benzenesulfonamide]: the EC50 is over 1000 nM. As to `CN1CCN(c2ccc(Nc3ncc(-c4ccc(C(N)=O)cc4)n4ccnc34)cc2F)CC1` [Compound 171, 4-{8-[3-Fluoro-4-(4-methyl-piperazin-1-yl)-phenylamino]-imidazo[1,2-a]pyrazin-5-yl}-benzamide], the EC50 was in the range of 101 to 500 nM.

For `Cc1[nH]ncc1-c1cnc(Nc2ccc(N3CCOCC3)cc2)c2nccn12` [Compound 176], the EC50 was over 1000 nM. As to `c1cn2c(-c3cn[nH]c3C3CC3)cnc(Nc3ccc(N4CCOCC4)cc3)c2n1` [Compound 160, [5-(5-Cyclopropyl-1H-pyrazol-4-yl)-imidazo[1,2-a]pyrazin-8-yl]-(4-morpholin-4-yl-phenyl)-amine], the EC50 is over 1000 nM.

In the case of `CN1CCN(c2ccc(Nc3ncc(-c4ccc(C(N)=O)cc4)n4ccnc34)cc2Cl)CC1` [Compound 136, 4-{8-[3-Chloro-4-(4-methyl-piperazin-1-yl)-phenylamino]-imidazo[1,2-a]pyrazin-5-yl}-benzamide], the EC50 was over 1000 nM.

For the molecule `CN1CCN(c2ccc(Nc3ncc(-c4cn[nH]c4)n4ccnc34)cc2)CC1` [Compound 14], the EC50 was over 1000 nM. `NC(=O)c1cnc(-c2cnc(Nc3ccc(N4CCOCC4)cc3)c3nccn23)s1` [Compound 158, 2-[8-(4-Morpholin-4-yl-phenylamino)-imidazo[1,2-a]pyrazin-5-yl]-thiazole-5-carboxylic acid amide]: the EC50 is over 1000 nM.

Turning to `C[C@@H]1CN(c2ccc(Nc3ncc(-c4cc(C(N)=O)co4)n4ccnc34)cc2)[C@@H](C)CN1C` [Compound 187], the EC50 lay in the range of 101 to 500 nM. For `CN1CCN(c2ccc(Nc3ncc(-c4cc(C(N)=O)co4)n4ccnc34)cc2)CC1` [Compound 151], the EC50 lay within 101 to 500 nM. Take `CC(C)N1CCN(c2ccc(Nc3ncc(-c4coc(C(N)=O)c4)n4ccnc34)cc2)CC1` [Compound 204, 4-{8-[4-(4-Isopropyl-piperazin-1-yl)-phenylamino]-imidazo[1,2-a]pyrazin-5-yl}-furan-2-carboxylic acid amide]: the EC50 lay within 501 to 1000 nM. For `c1cn2c(-c3cn[nH]c3)cnc(Nc3ccc(OCCN4CCOCC4)cc3)c2n1` [Compound 150, [4-(2-Morpholin-4-yl-ethoxy)-phenyl]-[5-(1H-pyrazol-4-yl)-imidazo[1,2-a]pyrazin-8-yl]-amine] the value was over 1000 nM; for `CC(C)N1CCN(c2ccc(Nc3ncc(-c4ccc5c(c4)CNC5=O)n4ccnc34)cc2)CC1` [Compound 205, 5-{8-[4-(4-Isopropyl-piperazin-1-yl)-phenylamino]-imidazo[1,2-a]pyrazin-5-yl}-2,3-dihydro-isoindol-1-one], over 1000 nM; for `O=C(NCCc1cccnc1)c1ccc(Nc2ncc(-c3cn[nH]c3)n3ccnc23)cc1` [Compound 93], over 1000 nM. Turning to `C[C@@H]1CN(c2ccc(Nc3ncc(-c4cc(F)c(C(N)=O)c(F)c4)n4ccnc34)cc2)[C@@H](C)CN1C` [Compound 181], the EC50 was over 1000 nM.

Take `NC(=O)c1c(F)cc(-c2cnc(Nc3ccc(N4CCOCC4)cc3)c3nccn23)cc1F` [Compound 165]: the half-maximal effective concentration (EC50) was over 1000 nM.
